From patent EP4772186A1, “USE AND COMPOSITION OF POSTBIOTIC OF LACTOBACILLUS PARACASEI ET-22” (Inner Mongolia Yili Industrial Group Co., Ltd., priority 2023, dated 2025)

Columns and labels:
[1] = test system: biofilm; experiment: scanning electron microscopy (SEM) of biofilm on HA disc; type: cell-based, halitosis subjects (saliva); conditions: pure components 100 µg/ml, others from 1.0×10^9 CFU/ml, 37°C 10 hours
Procedure: (§1) Lysate group: A hydroxyapatite (HA) disc was placed in a 96-well plate. 10 µl of saliva was added to the 96-well plate, followed by separate addition of ET-22 viable bacteria (1.0×10^9 CFU/ml), ET-22 heat-inactivated bacterial cells (obtained by inactivating viable bacteria at 1.0×10^9 CFU/ml), and lysate (obtained by inactivating and filtering viable bacteria at 1.0×10^9 CFU/ml), each at 10 µl. Then, 80 µl of SHI medium was added. The 96-well plate was placed in an anaerobic box and cultured anaerobically at 37°C for 10 hours.
as §1, with “NAD” for “Lysate”, “heat-inactivating” for “inactivating”, “NAD (100 µg/ml),” for “lysate (obtained by inactivating and filtering viable bacteria at 1.0×10^9 CFU/ml),”
2-hydroxy-3-phenylpropionic acid group: A hydroxyapatite (HA) disc was placed in a 96-well plate. 10 µl of saliva was added to the 96-well plate, followed by separate addition of ET-22 viable bacteria (1.0×10^9 CFU/ml), ET-22 heat-inactivated bacterial cells (obtained by heat-inactivating viable bacteria at 1.0×10^9 CFU/ml), and 2-hydroxy-3-phenylpropionic acid (100 µg/ml), each at 10 µl. […]

[2] = test system: multi-species biofilm; experiment: biomass of multi-species biofilm, crystal violet staining; type: cell-based, halitosis subjects (saliva)
Procedure: The association between biofilm biomass and halitosis degree were analyzed by evaluating biofilm formation under intervention with ET-22 viable bacteria, heat-inactivated bacteria, lysate, NAD, 2-hydroxy-3-phenylpropionic acid and peptidoglycan. Test method included the following.
as §1, with “Lysate Group:” for “Lysate group: A hydroxyapatite (HA) disc was placed in a 96-well plate.”, “to a” for “to the”, “at 100” for “at 10”, “The” for “The 96-well”, “hours. Six replicates were set for each group.” for “hours.”
NAD Group: 10 µl of saliva was added to a 96-well plate, followed by separate addition of ET-22 viable bacteria (1.0×10^9 CFU/ml), ET-22 heat-inactivated bacterial cells (obtained by heat-inactivating viable bacteria at 1.0×10^9 CFU/ml), and NAD (100 µg/ml), each at 100 µl. Then, 80 µl of SHI medium was added. The plate was placed in an anaerobic box and cultured anaerobically at 37°C for 10 hours. Six replicates were set for each group. […]
(5) The well plate was placed in a microplate reader and the biofilm biomass was measured at 600 nm.

## O=C(O)C(O)Cc1ccccc1 (stereo not drawn) [2-hydroxy-3-phenylpropionic acid]
[1]
  biofilm structure (SEM observation): the number of bacterial cell layers decreases, and the biofilm becomes thinner
[2]; compared with CK group, optical density, pure components 100 µg/ml, others from 1.0×10^9 CFU/ml, 37°C 10 hours
  biofilm biomass: significant decrease
[2]; relative to ET-22 viable bacteria and heat-inactivated bacteria
  intervention effect on the biofilm biomass: better
